Results as given in patent US11639329B2, “Lipids for use in lipid nanoparticle formulations” (ACUITAS THERAPEUTICS, INC., priority 2017, dated 2023).

What was measured:
[1] = system: luciferase expression in the liver (FLuc mRNA); test: Luciferase mRNA in vivo evaluation using lipid nanoparticle compositions; design: species or system mice (C57BL/6, CD-1); settings: LNP with FLuc mRNA, tail vein injection, liver 4 hours after administration; for Liver Luc (ng luc/g liver), *dosed at 0.3 mg/kg: dosed at 0.3 mg/kg (footnote *); for Liver Luc @ 0.5 mg/kg (ng luc/g liver): 0.5 mg mRNA/kg
Description: A lipid of structure (I), DSPC, cholesterol and PEG-lipid were solubilized in ethanol at a molar ratio of 50:10:38.5:1.5 or 47.5:10:40.8:1.7. Lipid nanoparticles (LNP) were prepared at a total lipid to mRNA weight ratio of approximately 10:1 to 30:1. Briefly, the mRNA was diluted to 0.2 mg/mL in 10 to 50 mM citrate buffer, pH 4. Syringe pumps were used to mix the ethanolic lipid solution with the mRNA aqueous solution at a ratio of about 1:5 to 1:3 (vol/vol) with total flow rates above 15 mL/min. The ethanol was then removed and the external buffer replaced with PBS by dialysis. Finally, the lipid nanoparticles were filtered through a 0.2 μm pore sterile filter.
Studies were performed in 6-8 week old female C57BL/6 mice (Charles River) 8-10 week old CD-1 (Harlan) mice (Charles River) according to guidelines established by an institutional animal care committee (ACC) and the Canadian Council on Animal Care (CCAC). Varying doses of mRNA-lipid nanoparticle were systemically administered by tail vein injection and animals euthanized at a specific time point (e.g., 4 hours) post-administration. Liver and spleen were collected in pre-weighed tubes, weights determined, immediately snap frozen in liquid nitrogen and stored at −80° C. until processing for analysis.
For liver, approximately 50 mg was dissected for analyses in a 2 mL FastPrep tubes (MP Biomedicals, Solon OH). ¼″ ceramic sphere (MP Biomedicals) was added to each tube and 500 μL of Glo Lysis Buffer—GLB (Promega, Madison Wis.) equilibrated to room temperature was added to liver tissue. Liver tissues were homogenized with the FastPrep24 instrument (MP Biomedicals) at 2×6.0 m/s for 15 seconds. Homogenate was incubated at room temperature for 5 minutes prior to a 1:4 dilution in GLB and assessed using SteadyGlo Luciferase assay system (Promega). Specifically, 50 μL of diluted tissue homogenate was reacted with 50 μL of SteadyGlo substrate, shaken for 10 seconds followed by 5 minute incubation and then quantitated using a CentroXS^3 LB 960 luminometer (Berthold Technologies, Germany). The amount of protein assayed was determined by using the BCA protein assay kit (Pierce, Rockford, Ill.). Relative luminescence units (RLU) were then normalized to total μg protein assayed. To convert RLU to ng luciferase a standard curve was generated with QuantiLum Recombinant Luciferase (Promega).
The FLuc mRNA (L-6107or L-7602) from Trilink Biotechnologies will express a luciferase protein, originally isolated from the firefly, photinus pyralis. FLuc is commonly used in mammalian cell culture to measure both gene expression and cell viability. It emits bioluminescence in the presence of the substrate, luciferin. This capped and polyadenylated mRNA is fully substituted with 5-methylcytidine and pseudouridine.
Compounds of structure (I) were formulated using the following molar ratio: 47.5% cationic lipid/ 10% distearoylphosphatidylcholine (DSPC)/40.8% Cholesterol/1.7% PEG lipid (“PEG-DMA” 2-[2-(ω-methoxy(polyethyleneglycol2000)ethoxy]-N,N-ditetradecylacetamide). Relative activity was determined by measuring luciferase expression in the liver 4 hours following administration via tail vein injection as described in Example 1.
The cationic lipids shown in Table 2 have previously been tested with nucleic acids. For comparative purposes, these lipids were also used to formulate lipid nanoparticles containing the FLue mRNA (L-6107) using an in line mixing method, as described in Example 1 and in PCT/US10/22614, which is hereby incorporated by reference in its entirety. Lipid nanoparticles may be formulated using the following molar ratio: 50% Cationic lipid/10% distearoylphosphatidylcholine (DSPC)/38.5% Cholesterol/1.5% PEG lipid (“PEG-DMG”, i.e., 1-(monomethoxy-polyethyleneglycol)-2,3-dimyristoylglycerol, with an average PEG molecular weight of 2000). In alternate embodiments, cationic lipid, DSPC, cholesterol and PEG-lipid are formulated at a molar ratio of approximately 47.5:10:40.8:1.7. […]

[2] = Determination of pKa of formulated lipids (TNS fluorescence assay in lipid nanoparticles); type: physicochemical; settings: probe TNS (2-(p-toluidino)-6-napthalene sulfonic acid); lipid formulated in LNP (compound/DSPC/cholesterol/PEG-lipid); pH giving half-maximal TNS fluorescence
Excerpt: As described elsewhere, the pKa of formulated lipids is correlated with the effectiveness of LNPs for delivery of nucleic acids (see Jayaraman et al, Angewandte Chemie, International Edition (2012), 51(34), 8529-8533; Semple et al, Nature Biotechnology 28, 172-176 (2010)). In some embodiments, the preferred range of pKa is ˜5 to ˜7. […] Lipid nanoparticles comprising compound of structure (I)/DSPC/cholesterol/PEG-lipid (50/10/38.5/1.5 or 47.5:10:40.8:1.7 mol %) in PBS at a concentration of 0.4 mM total lipid were prepared using the in-line process as described in Example 1. TNS was prepared as a 100 μM stock solution in distilled water. Vesicles were diluted to 24 μM lipid in 2 mL of buffered solutions containing 10 mM HEPES, 10 mM MES, 10 mM ammonium acetate, and 130 mM NaCl, where the pH ranged from 2.5 to 11. An aliquot of the TNS solution was added to give a final concentration of 1 μM and following vortex mixing fluorescence intensity was measured at room temperature in a SLM Aminco Series 2 Luminescence Spectrophotometer using excitation and emission wavelengths of 321 nm and 445 nm. A sigmoidal best fit analysis was applied to the fluorescence data and the pKa was measured as the pH giving rise to half-maximal fluorescence intensity.

Row | SMILES | Liver Luc (ng luc/g liver), *dosed at 0.3 mg/kg [1] | pKa [2] | Liver Luc @ 0.5 mg/kg (ng luc/g liver) [1]
1 | CCCCCCCCCN(CCO)CCN(CCCCCC(=O)OCC(CCCCCC)CCCCCCCC)CCCCCC(=O)OCC(CCCCCC)CCCCCCCC (centres unmarked) [Compound 1] | 330 ± 70* ng luc/g liver | 5.83 | 
2 | CCCCCCCCCN(CCCO)CCN(CCCCCC(=O)OCC(CCCCCC)CCCCCCCC)CCCCCC(=O)OCC(CCCCCC)CCCCCCCC (centres unmarked) [Compound 2] | 553 ± 291* ng luc/g liver | 5.76 | 
3 | CCCCCCCCC(CCCCCC)COC(=O)CCCCCCCN(CCCCCCCC(=O)OCC(CCCCCC)CCCCCCCC)CCN(CCO)CCCO (centres unmarked) [Compound 3] |  | 7.18 | 
4 | CCCCCCCCC(CCCCCC)COC(=O)CCCCCN(CCCCCC(=O)OCC(CCCCCC)CCCCCCCC)CCN(C)CCO (centres unmarked) [Compound 4] | 50 ± 14* ng luc/g liver | 6.91 | 
5 | CCCCCCCCC(CCCCCC)COC(=O)CCCCCN(CCCCCC(=O)OCC(CCCCCC)CCCCCCCC)CCN(C)CCCCCCCCCO (centres unmarked) [Compound 5] |  | 6.17 | 1597 ± 456 ng luc/g liver
6 | CCCCCCCCC(CCCCCC)COC(=O)CCCCCCCN(CCCCCCCC(=O)OCC(CCCCCC)CCCCCCCC)CCN(CC)CCCO (centres unmarked) [Compound 6] |  | 6.82 | 
7 | CCCCCCCCC(CCCCCC)COC(=O)CCCCCN(CCCCCC(=O)OCC(CCCCCC)CCCCCCCC)CCN(C)CCCCCCO (centres unmarked) [Compound 7] |  | 6.69 | 16 ± 14 ng luc/g liver
8 | CCCCCCC(CCCC)C(=O)OCCCCCCCCCN(CCCCCCCCCOC(=O)C(CCCC)CCCCCC)CCN(C)CCCCCCCCCO (centres unmarked) [Compound 8] |  | 6.08 | 54 ± 10 ng luc/g liver
